The values that follow are results of earlier work, collected in patent US20170281506A1, “COMPOSITION FOR TOPICAL APPLICATION FOR PREVENTING HAIR LOSS AND STIMULATING HAIR GROWTH” (priority 2011, published 2017).

For the data set, the system named is men. The conditions noted are these: oral, treated constantly for two years.

For `CC(C)(C)NC(=O)[C@H]1CC[C@H]2[C@@H]3CC[C@H]4NC(=O)C=C[C@]4(C)[C@H]3CC[C@]12C` [Finasteride, finasteride], the “participants who maintained or increased the number of hairs after the treatment” value is 83% and the “participants who showed no hair loss” value is 17%.
